Experimental data from patent US8426345B2, “Method of drug design” (Alchemia Limited, priority 2005, dated 2013).

Target: T1, Human SST5 somatostatin receptor (Homo sapiens, UniProt P35346)
T1 construct: expressed in transfected cells; host or cells: HEK-293 EBNA cells (membranes)
Experiment: Filter plate radio-ligand binding assay for SST5 receptor ([125I]SST-14 displacement)
Conditions: 3P library; for % SST5 radio-ligand binding displaced at conc 0.25: conc 0.25 μM; for % SST5 radio-ligand binding displaced at conc 1.0: conc 1.0 μM; for % SST5 radio-ligand binding displaced at conc 50: conc 50 μM; for % SST5 radio-ligand binding displaced at conc 250: conc 250 μM; for % SST5 radio-ligand binding displaced at conc 500: conc 500 μM

T1 sequence (P35346 whole entry): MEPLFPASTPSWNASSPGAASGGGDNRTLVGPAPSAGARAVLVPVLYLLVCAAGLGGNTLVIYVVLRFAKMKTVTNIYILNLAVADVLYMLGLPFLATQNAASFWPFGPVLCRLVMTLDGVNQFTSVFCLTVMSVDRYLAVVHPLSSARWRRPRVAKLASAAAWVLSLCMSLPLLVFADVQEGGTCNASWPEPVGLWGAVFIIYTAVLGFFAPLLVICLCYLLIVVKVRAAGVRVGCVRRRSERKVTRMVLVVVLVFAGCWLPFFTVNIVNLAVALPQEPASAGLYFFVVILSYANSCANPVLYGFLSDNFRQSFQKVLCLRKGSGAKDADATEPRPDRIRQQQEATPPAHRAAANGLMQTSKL

Compound: COC[C@H]1O[C@H](OCc2ccc3ccccc3c2)[C@H](NC(=O)CCCN2CCCC2)[C@@H](OCc2ccc3ccccc3c2)[C@@H]1O [Compound 143]
- % SST5 radio-ligand binding displaced at conc 0.25: − (% SST5 radio-ligand binding displaced at cone (μM) −<40%)
- % SST5 radio-ligand binding displaced at conc 1.0: − (% SST5 radio-ligand binding displaced at cone (μM) −<40%)

Compound: COC[C@H]1O[C@H](OCc2ccc3ccccc3c2)[C@H](NC(=O)CCCN)[C@@H](OCc2cccc(Cl)c2)[C@@H]1O [Compound 144]
- % SST5 radio-ligand binding displaced at conc 0.25: + (% SST5 radio-ligand binding displaced at cone (μM) 60>+>40%)
- % SST5 radio-ligand binding displaced at conc 1.0: ++ (% SST5 radio-ligand binding displaced at conc (μM) >60%)

Compound: COC[C@H]1O[C@H](OCc2ccc3ccccc3c2)[C@H](NC(=O)CCCN)[C@@H](OCc2cc(Cl)ccc2Cl)[C@@H]1O [Compound 145]
- % SST5 radio-ligand binding displaced at conc 0.25: + (% SST5 radio-ligand binding displaced at cone (μM) 60>+>40%)
- % SST5 radio-ligand binding displaced at conc 1.0: ++ (% SST5 radio-ligand binding displaced at conc (μM) >60%)

Compound: COC[C@H]1O[C@H](OCc2ccc3ccccc3c2)[C@H](NC(=O)CCCN)[C@@H](OCc2ccccc2Cl)[C@@H]1O [Compound 146]
- % SST5 radio-ligand binding displaced at conc 0.25: − (% SST5 radio-ligand binding displaced at cone (μM) −<40%)
- % SST5 radio-ligand binding displaced at conc 1.0: ++ (% SST5 radio-ligand binding displaced at conc (μM) >60%)

Compound: COC[C@H]1O[C@H](OCc2ccc3ccccc3c2)[C@H](NC(=O)CCCN)[C@@H](OCc2cccc3cccnc23)[C@@H]1O [Compound 147]
- % SST5 radio-ligand binding displaced at conc 0.25: + (% SST5 radio-ligand binding displaced at cone (μM) 60>+>40%)
- % SST5 radio-ligand binding displaced at conc 1.0: ++ (% SST5 radio-ligand binding displaced at conc (μM) >60%)

Compound: COC[C@H]1O[C@H](OCc2ccc3ccccc3c2)[C@H](NC(=O)CCCN)[C@@H](OCc2nc3ccccc3s2)[C@@H]1O [Compound 148]
- % SST5 radio-ligand binding displaced at conc 0.25: − (% SST5 radio-ligand binding displaced at cone (μM) −<40%)
- % SST5 radio-ligand binding displaced at conc 1.0: − (% SST5 radio-ligand binding displaced at cone (μM) −<40%)

Compound: COC[C@H]1O[C@H](OCc2ccc3ccccc3c2)[C@H](NC(=O)CCCN)[C@@H](OCc2nccc3ccccc23)[C@@H]1O [Compound 149]
- % SST5 radio-ligand binding displaced at conc 0.25: − (% SST5 radio-ligand binding displaced at cone (μM) −<40%)
- % SST5 radio-ligand binding displaced at conc 1.0: + (% SST5 radio-ligand binding displaced at cone (μM) 60>+>40%)

Compound: COC[C@H]1O[C@H](OCc2ccc3ccccc3c2)[C@H](NC(=O)CCCN)[C@@H](OCc2ccc(Cl)c(Cl)c2)[C@@H]1O [Compound 150]
- % SST5 radio-ligand binding displaced at conc 0.25: ++ (% SST5 radio-ligand binding displaced at conc (μM) >60%)
- % SST5 radio-ligand binding displaced at conc 1.0: ++ (% SST5 radio-ligand binding displaced at conc (μM) >60%)

Compound: COC[C@H]1O[C@H](OCc2ccc3ccccc3c2)[C@H](NC(=O)CCCN)[C@@H](OCc2cccc3ccccc23)[C@@H]1O [Compound 151]
- % SST5 radio-ligand binding displaced at conc 0.25: + (% SST5 radio-ligand binding displaced at cone (μM) 60>+>40%)
- % SST5 radio-ligand binding displaced at conc 1.0: ++ (% SST5 radio-ligand binding displaced at conc (μM) >60%)

Compound: COC[C@H]1O[C@H](OCc2ccc3ccccc3c2)[C@H](NC(=O)CCCN)[C@@H](OCc2ccc(Cl)cc2Cl)[C@@H]1O [Compound 152]
- % SST5 radio-ligand binding displaced at conc 0.25: + (% SST5 radio-ligand binding displaced at cone (μM) 60>+>40%)
- % SST5 radio-ligand binding displaced at conc 1.0: ++ (% SST5 radio-ligand binding displaced at conc (μM) >60%)

Compound: COC[C@H]1O[C@H](OCc2ccc3ccccc3c2)[C@H](NC(=O)CCCN)[C@@H](OCc2ccc3ccccc3n2)[C@@H]1O [Compound 153]
- % SST5 radio-ligand binding displaced at conc 0.25: ++ (% SST5 radio-ligand binding displaced at conc (μM) >60%)
- % SST5 radio-ligand binding displaced at conc 1.0: ++ (% SST5 radio-ligand binding displaced at conc (μM) >60%)

Compound: COC[C@H]1O[C@H](OCc2ccc3ccccc3c2)[C@H](NC(=O)CCCN)[C@@H](OCc2cccc(Cl)c2Cl)[C@@H]1O [Compound 154]
- % SST5 radio-ligand binding displaced at conc 0.25: ++ (% SST5 radio-ligand binding displaced at conc (μM) >60%)
- % SST5 radio-ligand binding displaced at conc 1.0: ++ (% SST5 radio-ligand binding displaced at conc (μM) >60%)

Compound: COC[C@H]1O[C@H](OCc2ccc3ccccc3c2)[C@H](NC(=O)CCCN)[C@@H](OCc2ccc(Oc3ccccc3)cc2)[C@@H]1O [Compound 155]
- % SST5 radio-ligand binding displaced at conc 0.25: ++ (% SST5 radio-ligand binding displaced at conc (μM) >60%)
- % SST5 radio-ligand binding displaced at conc 1.0: ++ (% SST5 radio-ligand binding displaced at conc (μM) >60%)

Compound: COC[C@H]1O[C@H](OCc2ccc(Cl)cc2)[C@H](NC(=O)CN)[C@@H](OC)[C@@H]1O [Compound 156]
- % SST5 radio-ligand binding displaced at conc 50: − (% SST5 radio-ligand binding displaced at cone (μM) −<40%)
- % SST5 radio-ligand binding displaced at conc 250: − (% SST5 radio-ligand binding displaced at cone (μM) −<40%)
- % SST5 radio-ligand binding displaced at conc 500: − (% SST5 radio-ligand binding displaced at cone (μM) −<40%)

Compound: COC[C@H]1O[C@@H](OCc2ccc(Cl)cc2)[C@H](NC(=O)CN)[C@@H](OC)[C@@H]1O [Compound 157]
- % SST5 radio-ligand binding displaced at conc 50: − (% SST5 radio-ligand binding displaced at cone (μM) −<40%)
- % SST5 radio-ligand binding displaced at conc 250: − (% SST5 radio-ligand binding displaced at cone (μM) −<40%)
- % SST5 radio-ligand binding displaced at conc 500: − (% SST5 radio-ligand binding displaced at cone (μM) −<40%)

Compound: COC[C@H]1O[C@H](OCc2ccc(Cl)cc2)[C@H](NC(=O)CN)[C@H](OC)[C@@H]1O [Compound 158]
- % SST5 radio-ligand binding displaced at conc 50: − (% SST5 radio-ligand binding displaced at cone (μM) −<40%)
- % SST5 radio-ligand binding displaced at conc 250: − (% SST5 radio-ligand binding displaced at cone (μM) −<40%)
- % SST5 radio-ligand binding displaced at conc 500: − (% SST5 radio-ligand binding displaced at cone (μM) −<40%)

Compound: COC[C@H]1O[C@@H](OCc2ccc(Cl)cc2)[C@H](NC(=O)CN)[C@H](OC)[C@@H]1O [Compound 159]
- % SST5 radio-ligand binding displaced at conc 50: − (% SST5 radio-ligand binding displaced at cone (μM) −<40%)
- % SST5 radio-ligand binding displaced at conc 250: − (% SST5 radio-ligand binding displaced at cone (μM) −<40%)
- % SST5 radio-ligand binding displaced at conc 500: − (% SST5 radio-ligand binding displaced at cone (μM) −<40%)
